This passage reports IC50 results from patent publication US20150225377A1, “VEGFR3 INHIBITORS” (CANCER THERAPEUTICS CRC PTY LIMITED, priority 2012, published 2015).

As a reminder, the IC50 is the concentration that gives 50% inhibition. A high value points to weaker potency.

Test [1] addresses T1, VEGFR3 cytoplasmic domain (Homo sapiens, UniProt P35916).
T1 construct: VEGFR3 cytoplasmic domain (amino acids 798-1298) was purchased as N-terminal GST-fusion protein; GST (N); purchased
As to the kind of experiment: VEGFR3 biochemical assay (AlphaScreen). As to conditions: GST-VEGFR3 cytoplasmic domain, 500 μM ATP (modified form: His-fusion, 1 μM ATP). How it is done: Compounds of the invention may be tested for in vitro activity in the following assay: A biotin labelled peptide is used as substrate (amino acid sequence: Biotin-[…]NH2). VEGFR3 cytoplasmic domain (amino acids 798-1298) was purchased as N-terminal GST-fusion protein (“the enzyme”). The 15 μL assay reactions are run in Greiner brand white 384-well low volume plates. All reactions contained 10 mM HEPES pH 7.4, 10 mM MgCl2, 0.01% (v/v) Tween-20, 50 μM Na3VO4, 0.01% (w/v) albumin from chicken egg white, 1 mM Dithiothreitol, 111 nM peptide substrate, 500 μM ATP, and 3.8 ng/reaction enzyme, with the enzyme being omitted from negative control reactions. Compounds were added in a volume of […] from dilution series prepared in DMSO, positive and negative control reactions receiving the same volume DMSO without compound. The plates were sealed with adhesive seals and incubated for 90 minutes at 30 degree Celsius. The reactions were stopped with the detection reagents added at the same time as follows: Product formation was quantified as amplified luminescence between PerkinElmer AlphaScreen™ beads, using Streptavidin-coated donor and anti-phosphotyrosine (P-Tyr-100) acceptor beads. To each reaction, 5 μL containing 10 mM HEPES pH 7.4, 25 mM NaCl, 100 mM EDTA, 0.01% (v/v) Tween-20, and 6.25 μg/mL of each bead type were added. Plates were incubated for 6 hours before being read on a PerkinElmer EnVision™ plate reader in HTS Alphascreen™ mode. IC50 values were obtained by calculating percent inhibition (% I) for each reaction relative to controls on the same plate (% I=(I-CN)/(CP-CN) where CN/CP are the averages of the negative/positive reactions, respectively), then fitting the % I data vs. compound concentration [I] to % I=(A+((B−A)/(1+((C/[I])̂D)))) where A is the lower asymptote, B is the upper asymptote, C is the IC50 value, and D is the slope factor.
The above assay was also run in a modified form in some cases (indicated below with *). In these cases, VEGFR3 cytoplasmic domain (amino acids 818-1177, lacking 949-1002 of UniProt accession number P35916) was expressed and purified as N-terminal Hexa-His-fusion protein (“the enzyme”), rather than using the N-terminal GST-fusion protein. The assay conditions were the same as above but with 1 μM ATP and 8 ng/reaction of the enzyme.

In a further test the target is T2, VEGFR3 (Homo sapiens, UniProt P35916).
T2 construct: host or cells: HMVEC-dLyAD
Nature of the test: VEGFR3 Phospho ELISA assay in HMVEC-dLyAD cells, VEGFC stimulated. To be noted: 1 hour compound, 250 ng/mL VEGFC 10 minutes. Type of test: cell-based. The procedure:
Adult human dermal lymphatic microvascular endothelial cells (HMVEC-dLyAD) (Cat#CC-2810, Lonza) were seeded into clear-bottom, TC treated 12 well plates (Cat #665180, Greiner Bio-One) in EGM-2MV (Cat#CC-3202, Lonza) at 180,000 cells/well (volume 1 mL), and the plates incubated at 37° C. and 5% CO2 for 6 hours. The media was replaced with EBM-2 (Cat #CC-3156, Lonza)+0.1% BSA (Cat#A8412, Sigma) and cells incubated for a further period (overnight at 37° C. and 5% CO2).
96 well Maxisorp immuno plates (Cat #439454, Nunc) were coated with 100 μL of Total VEGFR3 capture antibody (Part #841888, Human Total VEGFR3/FLT4 ELISA Kit, Cat #DYC3491, R&D Systems), or Phospho VEGFR3 Capture antibody (Part #841885, Human Phospho VEGFR3/FLT4 ELISA Kit, Cat#DYC2724, R&D Systems). The plates were covered and incubated at room temperature overnight.
The coating antibody was flicked out and the plates washed three times with Wash Buffer (Phosphate buffered saline (137 mM NaCl, […], […], […], pH 7.2-7.4), 0.05% Tween 20). 300 μL of blocking buffer (5% v/v Tween 20, 5% w/v sucrose in PBS) was then added to wells and plate incubated for 2 hours at room temperature. Blocking solution is flicked out and plates washed three times and tapped dry.
Compound dilution series were prepared in EBM-2 (Cat #CC-3156, Lonza)+0.1% BSA (Cat#A8412, Sigma) with constant 0.1% DMSO concentration. 439 μL of sample or vehicle control was added to the cell monolayers. Cells are treated for 1 hour at 37° C. and 5% CO2. 250 ng/mL Recombinant human VEGFC (Cat #2179-VC, R & D Systems) added to wells and plates incubated for an additional 10 minutes at 37° C. and 5% CO2.
The media and compounds were removed and the cell monolayer washed once in Dulbecco's Phosphate Buffered Saline (Cat #21600-044, Invitrogen). 130 μL of Lysis buffer added to wells and cell lysate harvested and transferred to tubes and stored on ice. Complete lysis buffer was prepared by adding 10 μL Protease Inhibitor Cocktail (Cat #P8340, Sigma-Aldrich), 10 μL PMSF (Phenylmethanesulfonyl fluoride, Cat #P7626, Sigma-Aldrich, prepared as 500 mM DMSO stock) per 1 mL of Phosphosafe™ Extraction Reagent (Cat #71296, Merck).
The harvested samples were then diluted 1:2 in IC Diluent #18 (5% Tween 20/PBS) and 100 μL transferred to the Total and Phospho VEGFR3 coated, blocked and washed 96 well plates and incubated for 2 hours at room temperature. The plates were then washed three times in wash buffer as described above and tapped dry.
For detection of Total VEGFR3100 μL of Detection antibody (Total VEGFR3 Detection Antibody Part#841888 in Total VEGFR3 kit) diluted in IC Diluent #1 (1% w/v BSA (Cat #A7906, Sigma-Aldrich)/PBS) was added to wells and the plate incubated for 2 hours at room temperature. The plate was then washed three times in wash buffer and tapped dry. 100 μL of streptavidin-HPR diluted in IC diluent #1 Streptavidin-HRP, Part #890803 in Total VEGFR3 kit) was added to wells and incubated at room temperature for 20 minutes followed by washing as described above 100 μL Substrate solution (3,3′,5,5′-Tetramethylbenzidine (TMB) Liquid Substrate System for ELISA, Cat #T0440, Sigma-Aldrich) was added and the plate incubated for 20 minutes in the dark at room temperature followed by the addition of 50 μL stop solution (2 M H2SO4).
Total VEGFR3 levels were quantified using a Multiskan Ascent plate reader and Ascent software fitted with 450 nm filter.
For detection of Phospho VEGFR3, 100 μL of Detection antibody (Anti-Phospho-Tyrosine-HRP Detection Antibody, Part #841403 in Phospho VEGFR3 kit) was diluted in IC Diluent #1 (1% w/v BSA/PBS), added to the wells and the plate incubated for 2 hours at room temperature. The plate was then washed three times in wash buffer as described above and tapped dry. […]
Background: An ELISA detects its analyte on a solid surface through an enzyme-linked reagent.

A further test has as its target T3, P397Y-FAK (Homo sapiens, UniProt Q05397).
T3 construct: endogenous in cells; host or cells: MDA-231-LNA
As to the kind of experiment: P397Y-FAK inhibition MSD platform cellular biomarker assay. Type of test: cell-based. To be noted: MDA-231-LNA cells, 1 hour compound. How it is done:
96-well plates (cat#MA6000, Meso Scale Discovery) are coated with 30 μL/well of mouse monoclonal FAK antibody [63D5] (cat#ab72140, Abcam) pre-diluted in PBS to a concentration of 1 mg/mL. The plates are sealed with adhesive film and incubated for 16 hours at 4° C. The antibody is then flicked out of the plates and 150 μL of 3% [w/v] Blocker A (cat#R93AA-1, Meso Scale Discovery) is added. The plates are resealed with adhesive film and incubated at room temperature on a shaker set at medium speed for 2 hours. The plates are then washed three times with a solution containing 50 mM Tris-HCl pH 7.5, 0.15 M NaCl and 0.02% Tween-20, before cell lysate addition described below.
Cells are split 1:2 into T150 cell culture flasks 2 days prior to compound treatment. On the day prior to compound treatment, 200 μL media containing 20,000 cells is seeded into all wells of white, clear-bottom, TC treated, pclear, 96-well microtitre plates (cat#655098, Greiner Bio-One), and the plates are incubated at 37° C. and 5% CO2 for […]. 1 pUwell of compound is then added from dilution series prepared in DMSO. Negative control wells receive the same volume of DMSO without compounds, and positive control wells receive 2 μM of a control compound in the same volume of DMSO. Cells are treated for 1 hour at 37° C. and 5% CO2. The media/compounds are then flicked off and 55 pUwell of ice-cold complete lysis buffer is added. Complete lysis buffer is prepared by adding 1 tablet PhosSTOP complete phosphatase inhibitor (cat#04906837001, Roche) and 1 tablet Complete, Mini, EDTA-free, protease inhibitor (cat#04693159001, Roche) per 10 mL of incomplete lysis buffer (150 mM NaCl, 20 mM Tris-HCl pH 7.5, 1 mM EDTA, 1 mM EGTA, 1% Triton-X 100). Plates are incubated on ice for 30 minutes, with 30 seconds high speed plate shaking every 5 minutes. 40 μL/well of cell lysate is transferred to the coated, blocked and washed 96-well microtitre plates described above. The 96-well plates are sealed with adhesive film and incubated for 16 hours at 4° C. The plates are then washed three times with a solution containing 50 mM Tris-HCl pH 7.5, 0.15 M NaCl and 0.02% Tween-20 and tapped dry. 25 μL/well of detection solution (1% [w/v] Blocker A (cat#R93AA-1, Meso Scale Discovery) in 50 mM Tris-HCl pH 7.5, 0.15 M NaCl and 0.02% Tween-20, with 1:600 rabbit polyclonal FAK phospho Y397 antibody (cat#ab39967, Abcam), 1:1000 anti-rabbit sulfo-tag antibody (cat#R32AB-1 Meso Scale Discovery) and 1:40 reconstituted Blocker D-M (cat#D609-0100, Rockland Immunochemicals for Research)) is added, and the plates resealed with adhesive film and incubated for 1 hour at room temperature on a plate shaker set to medium speed. Plates are then washed three times with a solution containing 50 mM Tris-HCl pH 7.5, 0.15 M NaCl and 0.02% Tween-20 and tapped dry. 150 μL/well of Read Buffer T+Surfactant (cat#R92TC-1, Meso Scale Discovery) is then added, and pFAK-397 levels quantified using a Meso Scale Discovery SECTOR Imager 6000 instrument.

T1 sequence (P35916 798-1298 isoform P35916-1): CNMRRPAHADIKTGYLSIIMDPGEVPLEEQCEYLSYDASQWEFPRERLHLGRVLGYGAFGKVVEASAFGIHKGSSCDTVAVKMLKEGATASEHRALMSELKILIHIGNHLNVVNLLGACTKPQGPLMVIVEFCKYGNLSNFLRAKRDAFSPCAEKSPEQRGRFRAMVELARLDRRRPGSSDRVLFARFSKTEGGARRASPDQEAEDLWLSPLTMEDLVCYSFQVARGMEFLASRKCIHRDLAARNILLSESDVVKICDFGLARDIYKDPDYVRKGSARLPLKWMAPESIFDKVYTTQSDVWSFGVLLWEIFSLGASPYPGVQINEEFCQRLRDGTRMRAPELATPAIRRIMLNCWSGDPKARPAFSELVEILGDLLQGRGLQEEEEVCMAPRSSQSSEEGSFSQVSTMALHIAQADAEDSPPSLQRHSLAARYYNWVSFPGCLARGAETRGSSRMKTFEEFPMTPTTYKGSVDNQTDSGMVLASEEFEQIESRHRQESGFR
T3 sequence (Q05397 2-1052 limits assumed, stated change not applied): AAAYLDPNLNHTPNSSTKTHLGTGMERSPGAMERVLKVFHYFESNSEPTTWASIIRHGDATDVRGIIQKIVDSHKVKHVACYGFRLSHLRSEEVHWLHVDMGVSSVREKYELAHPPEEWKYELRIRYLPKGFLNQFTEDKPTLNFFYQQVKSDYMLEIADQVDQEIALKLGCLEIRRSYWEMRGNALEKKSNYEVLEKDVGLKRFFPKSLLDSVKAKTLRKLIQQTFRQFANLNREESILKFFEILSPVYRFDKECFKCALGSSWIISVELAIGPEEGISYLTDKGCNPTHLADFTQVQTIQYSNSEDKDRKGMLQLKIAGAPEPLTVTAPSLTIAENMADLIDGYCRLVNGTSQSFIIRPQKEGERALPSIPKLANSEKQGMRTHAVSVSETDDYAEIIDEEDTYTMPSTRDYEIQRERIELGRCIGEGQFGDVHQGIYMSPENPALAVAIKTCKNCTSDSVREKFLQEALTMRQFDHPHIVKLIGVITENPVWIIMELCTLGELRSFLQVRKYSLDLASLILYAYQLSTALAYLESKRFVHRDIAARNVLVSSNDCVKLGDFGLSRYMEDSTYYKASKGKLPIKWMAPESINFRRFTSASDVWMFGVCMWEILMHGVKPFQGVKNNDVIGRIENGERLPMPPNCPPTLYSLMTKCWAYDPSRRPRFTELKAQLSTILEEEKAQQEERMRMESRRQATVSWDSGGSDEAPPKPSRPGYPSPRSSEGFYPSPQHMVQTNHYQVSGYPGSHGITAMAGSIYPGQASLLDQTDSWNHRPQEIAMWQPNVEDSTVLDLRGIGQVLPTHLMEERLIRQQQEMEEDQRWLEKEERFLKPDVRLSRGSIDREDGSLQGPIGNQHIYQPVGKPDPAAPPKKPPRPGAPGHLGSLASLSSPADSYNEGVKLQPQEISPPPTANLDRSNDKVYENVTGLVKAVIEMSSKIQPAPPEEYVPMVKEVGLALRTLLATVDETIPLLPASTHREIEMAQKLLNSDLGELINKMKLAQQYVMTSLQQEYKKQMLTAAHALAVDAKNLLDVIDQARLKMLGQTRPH
T2 sequence (P35916 25-1363): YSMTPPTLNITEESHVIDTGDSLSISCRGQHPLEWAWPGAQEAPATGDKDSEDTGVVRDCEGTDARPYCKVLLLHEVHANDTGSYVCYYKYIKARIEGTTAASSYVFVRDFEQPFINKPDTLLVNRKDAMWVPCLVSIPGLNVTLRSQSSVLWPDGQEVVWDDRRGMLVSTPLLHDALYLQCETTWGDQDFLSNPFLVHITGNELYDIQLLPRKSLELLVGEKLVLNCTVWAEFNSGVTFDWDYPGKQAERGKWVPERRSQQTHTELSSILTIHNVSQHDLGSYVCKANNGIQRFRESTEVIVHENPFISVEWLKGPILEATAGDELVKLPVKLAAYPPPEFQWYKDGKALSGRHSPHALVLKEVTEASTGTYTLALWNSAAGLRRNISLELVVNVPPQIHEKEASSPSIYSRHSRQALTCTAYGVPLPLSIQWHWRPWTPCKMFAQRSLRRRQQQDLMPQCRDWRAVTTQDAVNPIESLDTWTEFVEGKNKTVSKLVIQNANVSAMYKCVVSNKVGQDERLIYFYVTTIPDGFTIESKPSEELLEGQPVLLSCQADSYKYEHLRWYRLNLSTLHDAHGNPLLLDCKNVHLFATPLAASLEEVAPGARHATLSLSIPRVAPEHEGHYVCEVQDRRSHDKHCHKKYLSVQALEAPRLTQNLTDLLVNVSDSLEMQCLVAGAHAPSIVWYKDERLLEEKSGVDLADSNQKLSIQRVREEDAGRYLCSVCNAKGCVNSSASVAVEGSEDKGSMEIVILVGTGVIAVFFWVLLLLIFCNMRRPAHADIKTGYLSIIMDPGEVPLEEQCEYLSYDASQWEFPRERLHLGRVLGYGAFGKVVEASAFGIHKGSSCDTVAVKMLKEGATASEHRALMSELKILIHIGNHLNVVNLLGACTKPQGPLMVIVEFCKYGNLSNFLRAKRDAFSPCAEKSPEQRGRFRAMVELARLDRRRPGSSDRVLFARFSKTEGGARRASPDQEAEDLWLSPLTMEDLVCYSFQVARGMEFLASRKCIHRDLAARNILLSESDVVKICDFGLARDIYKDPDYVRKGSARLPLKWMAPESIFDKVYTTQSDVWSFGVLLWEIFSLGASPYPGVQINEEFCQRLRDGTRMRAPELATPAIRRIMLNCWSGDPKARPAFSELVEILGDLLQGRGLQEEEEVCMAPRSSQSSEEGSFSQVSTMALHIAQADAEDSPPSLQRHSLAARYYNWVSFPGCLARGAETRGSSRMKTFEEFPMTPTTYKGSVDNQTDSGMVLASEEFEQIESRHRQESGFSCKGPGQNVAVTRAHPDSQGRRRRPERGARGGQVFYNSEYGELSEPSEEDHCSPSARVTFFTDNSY

In the case of `NC(=O)Cc1cc(F)ccc1CCc1nc(Nc2ccc(C3CCNCC3)cc2)ncc1C(F)(F)F` [Compound 9, 2-(5-fluoro-2-(2-(2-((4-(piperidin-4-yl)phenyl)amino)-5-(trifluoromethyl)pyrimidin-4-yl)ethyl)phenyl)acetamide], the concentration for half-maximal inhibition (IC50) was 68 nM in test [1] and 379 nM against VEGFR3.

Turning to `NC(=O)Cc1ccccc1CCc1nc(Nc2ccc(C3CCNCC3)nc2)ncc1C(F)(F)F` [Compound 13, 2-(2-(2-(2-((6-(piperidin-4-yl)pyridin-3-yl)amino)-5-(trifluoromethyl)pyrimidin-4-yl)ethyl)phenyl)acetamide], the IC50 in test [1] was 67 nM; at VEGFR3, 1030 nM.

Take `NC(=O)Cc1ccccc1CCc1nc(Nc2ccc(CNCCO)cc2)ncc1C(F)(F)F` [Compound 19, 2-(2-(2-(2-((4-(((2-hydroxyethyl)amino)methyl)phenyl)amino)-5-(trifluoromethyl)pyrimidin-4-yl)ethyl)phenyl)acetamide]: the figures for the IC50 (in test [1]; on P397Y-FAK) were 70 nM and 7 nM, respectively.

For `Cc1ccc(CC(N)=O)c(CCc2nc(Nc3ccc(C4CCNCC4)cc3)ncc2C(F)(F)F)c1` [Compound 21, 2-(4-methyl-2-(2-(2-((4-(piperidin-4-yl)phenyl)amino)-5-(trifluoromethyl)pyrimidin-4-yl)ethyl)phenyl)acetamide], the IC50 in test [1] came to 44 nM; against P397Y-FAK, 119 nM.

For the compound `NC(=O)Cc1c(CCc2nc(Nc3ccc(C4CCNCC4)cc3)ncc2C(F)(F)F)cccc1C(F)(F)F` [Compound 22, 2-(2-(2-(2-((4-(piperidin-4-yl)phenyl)amino)-5-(trifluoromethyl)pyrimidin-4-yl)ethyl)-6-(trifluoromethyl)phenyl)acetamide], the figures for the IC50 (in test [1]; at P397Y-FAK) were 101 nM and 944 nM, respectively.
